Test [1] deals with human breast cancer (MDA-MB-231). The test is described as follows: cells. The following applies: MTT, mean ± SD of three experiments, read-out: IC50 ± standard deviation. The format is cell-based. Here is the method:
(§1) The cytotoxicity testing of compound 1 was performed against various cell lines, which includes human lung cancer (A549), human colon cancer (LS-180), human myeloid leukemia (HL-60) and human breast cancer (MDA-MB-231) using MTT (3-(4,5-dimethylthiazole-2-yl)-2,5-diphenyltetrazolium bromide). Herein, paclitaxel was used as positive control for cytotoxic assay. […] Further, the cell-cycle assay was performed on HL-60 cell lines. The compound 1 was treated against HL-60 cells at concentrations 5, 10, 20 and 30 μM and incubated for 24 h. […] Apoptotic bodies are small DNA fragments wrapped around the single membrane vesicles mainly formed when cells undergo apoptosis. These apoptotic bodies can be visualized under a fluorescent microscope by using DNA staining dyes such as 4′,6-diamidino-2-phenylindole (DAPI). The HL-60 cells were incubated with the compound 1 at different concentrations (5, 10, 20 and 30 μM) for 24 h. […] The % apoptosis is also represented graphically in Fig. 7.
(§2) The cytotoxic effect of compound 1 on cancer cells was assayed by using MTT dye. The HL-60 cell lines were seeded for 4 h in round bottom 96 well plates. It was then treated with different concentrations of compound 1 dissolved in DMSO and incubated for 48 h. With 3 h earlier to experiment termination, the MTT dye (20 μL) from the stock solution of 2.5 mg mL^−1 was added to each well. The MTT-formazan crystals thus formed were dissolved in DMSO (160 μL) and observed at 570 nm. The untreated control culture was treated with DMSO (<0.2%).

Test [2] has as its system human colon cancer (LS-180). The test can be described thus: cells. The class given is cell-based. Particulars: mean ± SD of three experiments, read-out: IC50 ± standard deviation. Here is the method:
as §1, §2

The test system of the next test is human lung cancer (A549). The test can be described thus: cells. The following applies: MTT, mean ± SD of three experiments, read-out: IC50 ± standard deviation. The format is cell-based. Here is the method: as §1, §2
Test [3] concerns human myeloid leukemia (HL-60). The test is described as follows: cells. The format is cell-based. The following applies: MTT, mean ± SD of three experiments, read-out: IC50 ± standard deviation. As to the method:
as §1, §2

Test [4] deals with M. tuberculosis H37Rv. The test is described as follows: microbe, parasite or virus in culture. Particulars: Mycobacterium tuberculosis, read-out: Minimum Inhibitory Concentration (MIC).
Test [5] relates to HL-60 cells. The test can be described thus: Cell cycle analysis, propidium iodide staining, flow cytometry. The format is cell-based, human. Particulars: 24 h, PI staining. As to the method:
as §1
The cell cycle phase distribution analysis in HL-60 cells was carried out by propidium iodide (PI) staining. The HL-60 cells were treated with different concentration (5, 10, 20 and 30 μM) of 1. After 24 h, the cells were centrifuged and collected at 400 × g and washed two times with PBS followed by fixing with ice-cold ethanol (70%). It was incubated overnight at 4 °C. Next day, cells were centrifuged at 4000 rpm, collected and washed with PBS followed by incubation with RNase (0.2 mg mL^−1) for 90 min at 37 °C. It was then stained with PI (10 μg mL^−1) and kept for 30 min in dark. The analysis of cells were carried out through flow-cytometer (FACS Calibur, Becton Dickinson) using list mode on 10 000 events for FL2-A vs. FL2-W. The ModFit software was used for the calculation of fluorescence intensity of the sub-G1 cell fraction representing the apoptotic cell population.

In test [6] the test system is HL-60 cells. The test is described as follows: Nuclear morphology, DAPI staining, fluorescence microscopy. The class given is cell-based, human. The following applies: HL-60, 5, 10, 20 and 30 μM, 24 h. Here is the method: as §1
HL-60 cells were incubated with compound 1 in a 12 well plate. After 24 h, cells were centrifuged at 400 × g, collected and washed two times with PBS. The cells were fixed using 1 mL solution of cold acetic acid in methanol (1 : 3) and incubated overnight at 4 °C. Further, the cells were centrifuged at 400 × g, collected and re-suspended in fixing solution (100 μL). […]

Test [7] relates to M. tuberculosis H37Rv. Particulars: 48 h.
The mark [8] stands for this setting: 48 h incubation, read at 570 nm.

Values after ≈ are worked out from the molar mass of the structure shown. Read-outs that look alike come from different tables or passages of the source. Where a SMILES comes first, the peptide text is derived from it. [ ]: non-standard residue; d: D form. Leu(ol) = CC(C)C[C@H](N)CO; Aib = CC(C)(N)C(=O)O

Usually IC50 stands for the midpoint of a concentration-inhibition curve.

As for `CC(=O)O[C@H]1C(=O)[C@@]2(C)[C@H]([C@H](OC(=O)c3ccccc3)[C@]3(O)C[C@H](OC(=O)[C@H](O)[C@@H](NC(=O)c4ccccc4)c4ccccc4)C(C)=C1C3(C)C)[C@]1(OC(C)=O)CO[C@@H]1C[C@@H]2O` [Paclitaxel, paclitaxel, reference compound], the IC50 is 0.0033 ± 0.0001 µM in test [1] (Homo sapiens, positive control); 0.0022 ± 0.0001 µM in test [2] (Homo sapiens, LS180, MTT, positive control); 0.0062 ± 0.0001 µM with human lung cancer (A549) (Homo sapiens, positive control); 0.0018 ± 0.0001 µM in test [3] (Homo sapiens, positive control).

In the case of `CO[C@H]1/C=C/O[C@@]2(C)Oc3c(C)c(O)c4c(O)c(c(/C=N/N5CCN(C)CC5)c(O)c4c3C2=O)NC(=O)/C(C)=C\C=C\[C@H](C)[C@H](O)[C@@H](C)[C@@H](O)[C@@H](C)[C@H](OC(C)=O)[C@@H]1C` [Rifampicin], in the test on M. tuberculosis H37Rv [4], the MIC was 0.06 µg/mL (≈ 0.0729 µM).

Turning to `CC(=O)NC(C)(C)C(=O)N[C@@H](CCC(N)=O)C(=O)N[C@@H](CC(C)C)C(=O)NC(C)(C)C(=O)N1CCC[C@H]1C(=O)N[C@H](C(=O)N[C@@H](CC(C)C)C(=O)NC(C)(C)C(=O)N1CCC[C@H]1C(=O)NC(C)(C)C(=O)NC(C)(C)C(=O)NC(C)(C)C(=O)N1CCC[C@H]1C(=O)N[C@H](CO)CC(C)C)C(C)C` [compound 1, Velutibol A] (Ac-[Aib]QL[Aib]PVL[Aib]P[Aib][Aib][Aib]P[Leu(ol)]), the half-maximal inhibitory concentration (IC50) in test [1] (setting [8]) came to 7 ± 0.2 µM; in test [2] (MTT, 48 h incubation, read at 570 nm), 26 ± 1.1 µM; in the test with human lung cancer (A549) (setting [8]) it was 23 ± 0.8 µM; in test [3] (setting [8]) it was 4 ± 0.1 µM. Further, the “Apop (apoptotic DNA population, sub-G1)” value was 70% with HL-60 cells [5] (HL-60, 10 μM); 85% in the test on HL-60 cells [5] (HL-60, 20 μM); 99% with HL-60 cells [5] (HL-60, 30 μM). Moreover, in the test on HL-60 cells [6], the “Formation of apoptotic bodies” value is “increased in a dose-dependent manner”. The “Minimum Inhibitory Concentration (MIC)” value in the test with M. tuberculosis H37Rv [7] was found to be 32 µg/mL.

For the origin of these results see PMC9056410, “14-Residue peptaibol velutibol A from Trichoderma velutinum: its structural and cytotoxic evaluation” (RSC Advances, 2020).
